Data on 80 compounds can be found in PubChem BioAssay AID2202555 (NIEHS Division of Translational Toxicology (DTT)).

For the data set, the system named is rat and mouse 2-year carcinogenicity bioassay, tumor evidence. The experiment in a line: Consolidated carcinogenicity assay summary data. From the text:
Cancer Evaluation Criteria
The National Toxicology Program describes the results of individual experiments on a chemical agent and notes the strength of the evidence for conclusions regarding each study. […] Other organizations, such as the International Agency for Research on Cancer, assign a strength of evidence for conclusions based on an examination of all available evidence, including animal studies such as those conducted by the NTP, epidemiologic studies, and estimates of exposure. Thus, the actual determination of risk to humans from chemicals found to be carcinogenic in laboratory animals requires a wider analysis that extends beyond the purview of these studies.
Five categories of evidence of carcinogenic activity are used in the Technical Report series to summarize the strength of evidence observed in each experiment: two categories for positive results (clear evidence and some evidence); one category for uncertain findings (equivocal evidence); one category for no observable effects (no evidence); and one category for experiments that cannot be evaluated because of major flaws (inadequate study). These categories of interpretative conclusions were first adopted in June 1983 and then revised on March 1986 for use in the Technical Report series to incorporate more specifically the concept of actual weight of evidence of carcinogenic activity. For each separate experiment (male rats, female rats, male mice, female mice), one of the following five categories is selected to describe the findings. These categories refer to the strength of the experimental evidence and not to potency or mechanism.
For studies showing multiple chemical-related neoplastic effects that if considered individually would be assigned to different levels of evidence categories, the following convention has been adopted to convey completely the study results. In a study with clear evidence of carcinogenic activity at some tissue sites, other responses that alone might be deemed some evidence are indicated as "were also related" to chemical exposure. In studies with clear or some evidence of carcinogenic activity, other responses that alone might be termed equivocal evidence are indicated as "may have been" related to chemical exposure.
When a conclusion statement for a particular experiment is selected, consideration must be given to key factors that would extend the actual boundary of an individual category of evidence. Such consideration should allow for incorporation of scientific experience and current understanding of long-term carcinogenesis studies in laboratory animals, especially for those evaluations that may be on the borderline between two adjacent levels. These considerations should include:
- adequacy of the experimental design and conduct;
- occurrence of common versus uncommon neoplasia;
- progression (or lack thereof) from benign to malignant neoplasia as well as from preneoplastic to neoplastic lesions;
- some benign neoplasms have the capacity to regress but others (of the same morphologic type) progress. At present, it is impossible to identify the difference. Therefore, where progression is known to be a possibility, the most prudent course is to assume that benign neoplasms of those types have the potential to become malignant;
- combining benign and malignant tumor incidences known or thought to represent stages of progression in the same organ or tissue;
- latency in tumor induction;
- multiplicity in site -specific neoplasia;
- supporting information from proliferative lesions (hyperplasia) in the same site of neoplasia or in other experiments (same lesion in another sex or species);
- presence or absence of dose relationships;
- statistical significance of the observed tumor increase;
- concurrent control tumor incidence as well as the historical control rate and variability for a specific neoplasm;
- survival-adjusted analyses and false positive or false negative concerns;
- structure-activity correlations; and
[…]

Setting [1] is: Route (rodents): Interperitoneal.

Results filed as inconclusive are left out. Active and inactive are the calls of the source. How the calls were made is not given here.

On to `ClCC(Cl)Cl`, for which, for the setting “Route (rodents): Gavage”, the carcinogen call was “active; no evidence”.
As for `CCCBr`, under “Route (rodents): Inhalation”, the carcinogen call is “active; some evidence”.
For the compound `CCCN(CCC)c1c([N+](=O)[O-])cc(C(F)(F)F)cc1[N+](=O)[O-]`, the carcinogen call (Route (rodents): Dosed feed) was “active; no evidence”.
As to `O=[N+]([O-])c1ccc(Nc2ccc(Nc3ccccc3)c(S(=O)(=O)O)c2)c([N+](=O)[O-])c1`, under “Route (rodents): Gavage”, the carcinogen call was “active; no evidence”.
The same measure, in the same setting: for `O=c1ccc2ccccc2o1` the value was “active; some evidence”.
For the compound `C/C=C(/C)C(=O)O[C@H]1CCN2CC=C(COC(=O)[C@@](O)([C@@H](C)OC)C(C)(C)O)[C@H]12`, where the note is “Route (rodents): Dosed feed”, the carcinogen call was “active; clear evidence”.
On the same count and under the same terms, for `Nc1cc(S(=O)(=O)O)cc2cc(S(=O)(=O)O)c(N=Nc3ccc(-c4ccc(N=Nc5c(S(=O)(=O)O)cc6cc(S(=O)(=O)O)cc(N)c6c5O)cc4)cc3)c(O)c12` the value was “active; clear evidence”.
In the case of `CCCl`, for the setting “Route (rodents): Inhalation”, the carcinogen call was “active; equivocal evidence”.
For the compound `CN(C)c1ccc(C(c2ccccc2)c2ccc(N(C)C)cc2)cc1`, the carcinogen call (Route (rodents): Dosed feed) is “active; equivocal evidence”.
`Cc1cc(N=Nc2c(O)ccc3ccccc23)c(S(=O)(=O)O)cc1Cl`: the carcinogen call (Route (rodents): Dosed feed) is “active; clear evidence”.
`C=C(Cl)CSC(=S)N(CC)CC`: under “Route (rodents): Dosed feed”, the carcinogen call was “active; clear evidence”.
Same read-out and setting: for `Nc1c(Br)cc(Br)c2c1C(=O)c1ccccc1C2=O` the value was “active; clear evidence”.
As for `OCCNCCO`, the carcinogen call (Route (rodents): Topical) is “active; no evidence”.
For the compound `O=P(OCCCl)(OCCCl)OCCCl`, the carcinogen call (Route (rodents): Gavage) was “active; clear evidence”.
In the case of `Nc1ccc2c(c1)C(=O)c1ccccc1C2=O`, the carcinogen call (Route (rodents): Dosed feed) was “active; clear evidence”.
As for `COc1c2occc2cc2ccc(=O)oc12`, the carcinogen call (Route (rodents): Gavage) is “active; clear evidence”.
As for `C[C@]12CCC(=O)C=C1CC[C@@H]1[C@@H]2CC[C@]2(C)C(=O)CC[C@@H]12`, the carcinogen call (Route (rodents): Gavage) is “active; equivocal evidence”.
As for `ClCCl`, the carcinogen call (Route (rodents): Inhalation) is “active; some evidence”.
As to `c1ccc(N=Nc2ccccc2)cc1`, the carcinogen call (Route (rodents): Dosed feed) was “active; clear evidence”.
Take `C=CC(=O)OCC(CC)(COC(=O)C=C)COC(=O)C=C`: the carcinogen call (Route (rodents): Topical) was “active; equivocal evidence”.
`CC1=CC(=O)CC(C)(C)C1`: the carcinogen call (Route (rodents): Gavage) is “active; some evidence”.
Still for that read-out and setting: for `Oc1ccc(O)cc1` the value was “active; some evidence”.
Regarding `CCOc1ccc(NC(C)=O)cc1N`, the carcinogen call (Route (rodents): Dosed feed) was “active; no evidence”.
In the case of `Cc1ccc([N+](=O)[O-])cc1N`, the carcinogen call (Route (rodents): Dosed feed) was “active; no evidence”.
With `OC(O)C(Cl)(Cl)Cl`, the carcinogen call (Route (rodents): Gavage) is “active”.
Still for that read-out and setting: for `Nc1ccc([N+](=O)[O-])cc1O` the value was “active; some evidence”.
As for `C#CCO`, the carcinogen call (Route (rodents): Inhalation) was “active; some evidence”.
Take `CN(C)c1ccc2nc3ccc(=[N+](C)C)cc-3sc2c1`: the carcinogen call (Route (rodents): Gavage) was “active; some evidence”.
In the case of `Nc1ccc(Cl)cc1N`, the carcinogen call (Route (rodents): Dosed feed) was “active; clear evidence”.
As to `Cc1cn([C@H]2C[C@H](N=[N+]=[N-])[C@@H](CO)O2)c(=O)[nH]c1=O`, the carcinogen call (Route (rodents): Gavage, Second Route: Administration in utero) is “active”.
As to `Cc1ccccc1N`, where the note is “Route (rodents): Dosed feed”, the carcinogen call was “active; clear evidence”.
Take `C1COCCO1`: the carcinogen call (Route (rodents): Dosed water) is “active; clear evidence”.
Regarding `COC(=O)C(c1ccccc1)C1CCCCN1` (stereo not given), the carcinogen call (Route (rodents): Dosed feed) was “active; no evidence”.
As to `BrCCBr`, the carcinogen call (Route (rodents): Inhalation, Second Route: Gavage) is “active; clear evidence”.
Regarding `COc1ccc(N)c(C)c1`, the carcinogen call (Route (rodents): Gavage) is “active; clear evidence”.
Consider `Nc1ccc(N)c2c1C(=O)c1c(N)ccc(N)c1C2=O`, for which the carcinogen call (Route (rodents): Dosed feed) is “active; clear evidence”.
Same read-out and setting: for `ClC1=C(Cl)[C@]2(Cl)[C@H]3[C@H]([C@@H]4C=C[C@H]3C4)[C@@]1(Cl)C2(Cl)Cl` the value was “active; equivocal evidence”; for `C[C@H]1CCCC(=O)CCC/C=C/c2cc(O)cc(O)c2C(=O)O1`, “active; no evidence”.
On to `ClC(Cl)C(Cl)Cl`, for which, under “Route (rodents): Gavage”, the carcinogen call is “active; equivocal evidence”.
Still for that read-out and setting: for `Clc1cc2oc3c(Cl)c(Cl)c(Cl)cc3c2cc1Cl` the value was “active”.
`CC1=CC(C)(C)Nc2ccccc21`: the carcinogen call (Route (rodents): Topical) is “active; some evidence”.
In the case of `Nc1ccccc1`, the carcinogen call (Route (rodents): Dosed feed) is “active; clear evidence”.
On the same count and under the same terms, for `COc1ccc(N)cc1N` the value was “active; clear evidence”.
As for `C1CO1`, the carcinogen call (Route (rodents): Inhalation) is “active”.
Turning to `CC(CCl)OC(C)CCl` (stereo not given), the carcinogen call (Route (rodents): Gavage) is “active; no evidence”.
For `ClC(Cl)=C(Cl)Cl`, the carcinogen call (Route (rodents): Inhalation) was “active; clear evidence”.
For `C=CCc1ccc(OC)c(OC)c1`, the carcinogen call (Route (rodents): Gavage) is “active; clear evidence”.
Regarding `COc1cc2c(c3c1c(=O)c1ccccc1n3C)C=CC(C)(C)O2`, the carcinogen call under setting [1] was “active; clear evidence”.
In the case of `Nc1ccc(Oc2ccc(N)cc2)cc1`, the carcinogen call (Route (rodents): Dosed feed) was “active; clear evidence”.
As for `OCc1c[nH]c2ccccc12`, under “Route (rodents): Gavage”, the carcinogen call is “active; no evidence”.
Consider `CC(O)c1ccccc1` (stereo not given), for which, where the note is “Route (rodents): Gavage”, the carcinogen call was “active; some evidence”.
In the case of `S=[Se]`, for the setting “Route (rodents): Gavage, Second Route: Topical”, the carcinogen call was “active; clear evidence”.
With `CCCC[C@@H](C)[C@@H](OC(=O)C[C@@H](CC(=O)O)C(=O)O)[C@H](C[C@@H](C)C[C@H](O)CCCC[C@@H](O)C[C@H](O)[C@H](C)N)OC(=O)C[C@@H](CC(=O)O)C(=O)O`, the carcinogen call (Route (rodents): Dosed feed) is “active; clear evidence”.
In the case of `ClC(Cl)Br`, the carcinogen call (Route (rodents): Gavage, Second Route: Dosed Water) is “active; clear evidence”.
In the case of `ClC=C(Cl)Cl`, the carcinogen call (Route (rodents): Gavage) is “active; no evidence”.
For the compound `Cc1cnc[nH]1`, the carcinogen call (Route (rodents): Dosed feed) is “active; no evidence”.
Same read-out and setting: for `c1ccc(NNc2ccccc2)cc1` the value was “active; clear evidence”.
Take `c1ccoc1`: the carcinogen call (Route (rodents): Gavage) was “active; clear evidence”.
For the compound `O=C(O)c1ccc([N+](=O)[O-])cc1`, the carcinogen call (Route (rodents): Dosed feed) was “active; no evidence”.
For `ClC(Br)Br`, the carcinogen call (Route (rodents): Gavage) is “active; no evidence”.
Regarding `Oc1ccc2ccccc2c1N=Nc1ccccc1`, the carcinogen call (Route (rodents): Dosed feed) is “active; clear evidence”.
Turning to `FC(F)(F)c1ccc(Cl)cc1`, the carcinogen call (Route (rodents): Inhalation) is “active; some evidence”.
Take `O=C1c2ccccc2-c2ccc3c4c(ccc1c24)-c1ccccc1C3=O`: the carcinogen call (Route (rodents): Dosed feed) is “active; no evidence”.
For the compound `Nc1ccc(Cl)cc1`, for the setting “Route (rodents): Gavage”, the carcinogen call was “active; clear evidence”.
`[O]=[Mo](=[O])=[O]`: for the setting “Route (rodents): Inhalation”, the carcinogen call was “active; equivocal evidence”.
Turning to `CC1(C)COC1=O`, the carcinogen call (Route (rodents): Gavage) was “active; clear evidence”.
On to `S=P(N1CC1)(N1CC1)N1CC1`, for which the carcinogen call under setting [1] was “active; clear evidence”.
Turning to `CCCCCCCCCCCC(=O)N(CCO)CCO`, where the note is “Route (rodents): Topical”, the carcinogen call was “active; no evidence”.
`COP(=O)(OC)OC=C(Cl)Cl`: the carcinogen call (Route (rodents): Gavage, Second Route: Dosed Feed) was “active; some evidence”.
Regarding `O=C1CCc2ccccc2O1`, where the note is “Route (rodents): Gavage”, the carcinogen call is “active; some evidence”.
`C[C@@H]1Cc2c(Cl)cc(C(=O)N[C@@H](Cc3ccccc3)C(=O)O)c(O)c2C(=O)O1`: the carcinogen call (Route (rodents): Gavage) is “active; clear evidence”.
In the case of `O=C1Nc2ccc(Cl)cc2C(c2ccccc2)=NC1O` (stereo not given), the carcinogen call (Route (rodents): Dosed feed) was “active; equivocal evidence”.
Regarding `O=Cc1ccco1`, the carcinogen call (Route (rodents): Gavage) was “active; some evidence”.
Still for that read-out and setting: for `CC(C)=C1CC[C@@H](C)CC1=O` the value was “active; no evidence”.
As to `C1CCOC1`, the carcinogen call (Route (rodents): Inhalation) was “active; some evidence”.
On to `CN(C)c1ccc(Cc2ccc(N(C)C)cc2)cc1`, for which the carcinogen call (Route (rodents): Dosed feed) was “active; clear evidence”.
Consider `O=C(O)C(Cl)(Cl)Br`, for which the carcinogen call (Route (rodents): Dosed water) is “active; clear evidence”.
Still for that read-out and setting: for `Cc1ccc(S(=O)(=O)Oc2ccc(N=Nc3ccc(-c4ccc(N=Nc5c(O)ccc6cc(S(=O)(=O)O)cc(S(=O)(=O)O)c56)c(C)c4)cc3C)cc2)cc1` the value was “active; clear evidence”.
As for `CC=CC=CC=O`, for the setting “Route (rodents): Gavage”, the carcinogen call was “active; clear evidence”.
With `NC(=O)NN=Cc1ccc([N+](=O)[O-])o1`, the carcinogen call (Route (rodents): Dosed feed) was “active; equivocal evidence”.
